Measured values as given in a melting point compilation (Tetko et al.; mined from patent text by program, amines drawn as free bases though some values may be those of a salt).

With `CC(=O)NC[C@H]1CN(c2ccc(N3CCC(c4nnn[nH]4)CC3)c(F)c2)C(=O)O1` the melting point was 148 to 150 °C.
`CSc1nnc(C(C)(C)C)c(=O)n1C` gave a melting point of 90 to 100 °C.
`CCCCC(=N)NC(=O)NC1CCCCC1` gave a melting point of 146 to 148 °C.
Compound `CCCCNC(=O)NS(=O)(=O)c1cscc1C` has a melting point of 126 to 131 °C.
For `CC(C)(C)OC(=O)Nc1ccc(Nc2n[nH]c(N)c2C#N)cc1`, the melting point was 166 to 168 °C.
`CN1C(=O)NC(=O)C1=Cc1cc(Br)c(O)c(Br)c1` showed a melting point of 271 to 277 °C.
Work on `BrCCCc1ncnn1C(c1ccccc1)(c1ccccc1)c1ccccc1` yielded a melting point of 146 to 149 °C.
For `CC1(C)CC(SCc2c(C(F)(F)F)nn(-c3ccccc3)c2Cl)=NO1`, the melting point was 89 to 90 °C.
Work on `CCOC(=O)c1c(C)cc2cnc(C)nc2c1C` yielded a melting point of 84 to 86 °C.
In the case of `CC(C)c1ccc(C2(OC(=O)c3ccccc3)C(=O)c3ccccc3C2=O)c(O)c1`, the melting point is reported as 117 to 119 °C.
With `Clc1ccc(-c2noc(CCC#Cc3ccccn3)n2)cc1` the melting point was 75 to 77 °C.
`COC(=O)c1cc(OC)c(N=Nc2ccccc2)c(OC)c1` showed a melting point of 115 to 116 °C.
`CCC(=O)Nc1nnc2c3c(c(N4CCCCC4)nn12)CCCC3` showed a melting point of 173 to 174 °C.
In the case of `CC(C)(C)OC(=O)N=C(NC(=O)OC(C)(C)C)Nc1ccc2c(c1)Cc1cc(NC(=NC(=O)OC(C)(C)C)NC(=O)OC(C)(C)C)ccc1-2`, the melting point is reported as > 340 °C.
Compound `CCS(=O)(=O)C(F)(F)C(O)(Cn1cncn1)c1ccc(F)cc1` (centres undefined) has a melting point of 131 to 132 °C.
Compound `O=C(c1ccccc1)C(Br)(Br)Br` has a melting point of 63 to 64 °C.
`Cc1noc(CCCCCCCOc2ccc(C3=NCCO3)cc2)c1CN1CCCC1` gave a melting point of 98 to 99 °C.
With `CC(C)(C)OC(=O)N1CCC(CNC(=O)[C@@H]2CCCN2C(=O)OCc2ccccc2)CC1` the melting point was 50 °C.
For `CC(=O)c1ccc(SCC(=O)O)cc1`, the melting point was 151 to 153 °C.
With `COC(C#N)Cc1ccc2oc(Cc3nc(-c4ccccc4)oc3C)cc2c1` (centres undefined) the melting point was 107 to 109 °C.
Work on `O=S1(=O)NCN(C2CC2)c2c1ccc(Cl)c2Cl` yielded a melting point of 132 to 133 °C.
`O=C1c2ccccc2C(=O)N1CCc1ccc(F)cc1` showed a melting point of 106 to 107 °C.
Compound `COc1ccc(Nc2cncc(-c3cccc(Nc4ccccn4)c3)c2)cc1` has a melting point of 161 to 165 °C.
`CS(=O)(=O)N(Cc1cccnc1)c1ccccc1OCC(F)(F)F` gave a melting point of 80 to 84 °C.
In the case of `O=S(=O)(Cl)c1cncc(Br)c1`, the melting point is reported as 64 °C.
In the case of `COc1ccc2nc(Cl)c(NN)nc2c1`, the melting point is reported as < 250 °C.
With `O=C(O)C(=O)N1CCC(Cc2ccc(F)cc2)CC1` the melting point was 152 to 154 °C.
For `CSCC(C)(C)NC(=O)c1c(I)cccc1Oc1ncc(C(F)(F)F)cc1Cl`, the melting point was 83 to 85 °C.
In the case of `CCc1cc(NCc2ccc(-n3cccc3-c3nnn[nH]3)cc2)n2nccc2n1`, the melting point is reported as 129 to 130 °C.
With `C#CCCCOc1c(C)cc(C#N)cc1C` the melting point was 48 to 49 °C.
For `COc1ccc(Cn2ncc(N3CCOCC3)c(C=NO)c2=O)cc1`, the melting point was 166 to 168 °C.
For `Fc1cc(CC2(Cc3ccnc(F)c3)c3ccccc3Oc3ncccc32)ccn1`, the melting point was 185 to 189 °C.
`CCN1CCN(c2nc(-c3ccc(OCCO)cc3)cc3ccsc23)CC1` showed a melting point of 135 to 136 °C.
Compound `CC(CO)(CO)NS(=O)(=O)c1cc([N+](=O)[O-])c(Cl)s1` has a melting point of 133 °C.
`O=C(Nc1ccc(CN2C(=O)C=C(CCO)Sc3ccccc32)cc1)c1ccccc1-c1ccccc1` showed a melting point of 116 to 120 °C.
`Cc1nccn1Cc1ccc(COc2cccc3c2CN(C2CCC(=O)NC2=O)C3=O)cc1` (centres undefined) showed a melting point of 275 to 277 °C.
For `O=C(CO)NCCCOCCCCOCCCNC(=O)CO`, the melting point was 67 to 71 °C.
In the case of `COc1ccc(-c2c(Cl)c(Cn3cncn3)nc3sc4c(c23)CCSC4)cc1`, the melting point is reported as 198 to 200 °C.
`CC1c2c(Cl)cccc2N=C2NC(=O)CN21` (centres undefined) gave a melting point of 252 °C.
In the case of `O=[N+]([O-])c1ccc(Cn2c(S(=O)(=O)C(F)(F)C(F)F)nc(-c3ccc(F)cc3)c2-c2ccc(F)cc2)cc1`, the melting point is reported as 169 to 170 °C.
`COc1ccc(OC)c(C(=O)CC(O)C(=O)O)c1` (centres undefined) gave a melting point of 89 °C.
`COC(=O)C1=C(C)NC(C)=C(C(=O)OCCOC(=O)c2ccc(NC(C)=O)cc2)C1c1cccc([N+](=O)[O-])c1` (centres undefined) showed a melting point of 190 to 193 °C.
Compound `COC(=O)c1ccc(COc2cc(F)cc(C3(OC)CCOCC3)c2)cc1` has a melting point of 88 to 89 °C.
Work on `COC(=O)C1=Cc2cc(Cl)ccc2OC1` yielded a melting point of 106 to 109 °C.
In the case of `CN(CCCCOCC(=O)O)c1cnc(-c2ccc(F)cc2)c(-c2ccc(F)cc2)n1`, the melting point is reported as 116 to 118 °C.
Work on `CCCCOC(=O)C(=O)c1ccc2c(c1)C1(C)CCN(C)C1N2C` (centres undefined) yielded a melting point of 56 to 61 °C.
Work on `Cc1cc(C)n(-c2nc(-c3ccc(Cl)cc3)c(CCC(=O)O)o2)n1` yielded a melting point of 201 to 202 °C.
With `Cc1nc(C(=O)O)c(C(=O)NC(C)(C)C)o1` the melting point was 186 to 188 °C.
For `N#Cc1ccc(Cl)c(C=NO)c1`, the melting point was 191 to 193 °C.
Compound `CC=CC(=O)c1ccc(CCCCNC(C)=O)cc1` has a melting point of 64 to 66 °C.
With `CCCCCCCCS(=O)(=O)c1ccc(CC(N)(CO)CO)cc1` the melting point was 108 to 109 °C.
`CC(=O)OCc1ccc2oc(=O)c(C(=O)Oc3cncc(Cl)c3)cc2c1` gave a melting point of 153 to 155 °C.
With `CC(=O)NC1C(O)OC(COC(C)=O)C(O)(C(C)=O)C1OC(C)C(=O)O` (centres undefined) the melting point was 85.8 to 90.8 °C.
Compound `COc1ccc2ncc(C(N)=O)cc2c1` has a melting point of 93.7 to 95.7 °C.
Work on `Cc1[nH]c(=O)ccc1C(=O)c1ccc([N+](=O)[O-])cc1` yielded a melting point of 282 to 284 °C.
For `Cc1ccc(-c2ccc(S(C)(=O)=O)cc2)n1-c1ccc(-c2ccoc2)cc1`, the melting point was 200 to 202 °C.
In the case of `NCC1Cc2cc(Cl)cc(-c3ccc(F)c(F)c3)c2O1` (centres undefined), the melting point is reported as > 250 °C.
In the case of `COc1cc2c(cc1OC)CN(CCc1ccc(NC(=O)c3cccc4c(=O)c5cccc(F)c5[nH]c34)cc1)CC2`, the melting point is reported as 212 °C.
Compound `CCOC(=O)c1c(N)[nH]c2cc(OC)c(OC)cc12` has a melting point of 164 to 166 °C.
`COc1ccc(C2OC(=O)N3CC(=O)CCC23)cc1OC` (centres undefined) gave a melting point of 180 °C.
Compound `Cc1ccccc1N1CCN(CCn2c(=O)[nH]c3cscc3c2=O)CC1` has a melting point of 214 to 216 °C.
Compound `Cc1ccc(N2C(=S)SCC2(C)O)nc1` (centres undefined) has a melting point of 108 °C.
`Cc1c(NC(=O)CC(CSC(=O)Cc2ccccc2)c2ccccc2)cccc1C(=O)O` (centres undefined) gave a melting point of 135 to 137 °C.
With `CC1(C)Oc2ccc(C#N)cc2[C@@H](N2CCSC2=NC#N)[C@@H]1O` the melting point was 272 to 274 °C.
For `CCCc1nccn1N=Cc1ccccc1`, the melting point was 61 to 62 °C.
With `O=C(O)Cc1ccc(C(=O)c2ccc(Cl)cc2)n1Cc1ccccc1` the melting point was 162 to 163 °C.
`COc1cc(N2CCCC2)ncc1NC(=O)c1cc2cc(F)ccc2n1Cc1cccc(F)c1` gave a melting point of 196 to 198 °C.
With `CC(C)(OCc1cc2cc(C(F)(F)F)ccc2n1S(=O)(=O)c1ccc2ncsc2c1)C(=O)O` the melting point was 98 to 100 °C.
With `COC(=O)C[C@H]1COS(=O)(=O)N1C(=O)OCC1c2ccccc2-c2ccccc21` the melting point was 138 to 140 °C.
Work on `CC(Oc1ccc(OC(F)(F)F)cc1)c1ccnc2ncnn12` (centres undefined) yielded a melting point of 91 to 93 °C.
Work on `O=C1NC(=O)C2(CCOc3ccc(F)cc32)S1` (centres undefined) yielded a melting point of 147 to 149 °C.
With `CC(C(=S)c1cccc(NC=O)n1)S(C)=O` (centres undefined) the melting point was 130 to 132 °C.
For `Cc1nccn1-c1ccc(N)cc1C(F)(F)F`, the melting point was 117 to 119 °C.
For `Cc1ccc2c(c1)c(=O)c1c(cnn1C)n2CCCl`, the melting point was 116 to 119 °C.
`CCOP(C)(=O)CC(CCc1ccccc1)NS(=O)(=O)c1ccc(C)cc1` (centres undefined) gave a melting point of 107 to 108 °C.
For `CCOCOCCCOn1cnc2c(=O)[nH]c(N)nc21`, the melting point was 242 to 245 °C.
Work on `CCOC(=O)c1ccc2c(c1)c(-c1ccccc1)nn2CCC#N` yielded a melting point of 99 to 102 °C.
Work on `Cc1[nH]c2ccccc2c1Cc1cccnc1` yielded a melting point of 207 to 210 °C.
Work on `CCc1nc2c(cnn2CC)c(NC2CCOCC2)c1CNC(=O)c1cc(C)cc(C(=O)NCc2ccc(OC)c(-c3cccc(CN4CCNC(C)C4)c3)c2)c1` (centres undefined) yielded a melting point of 121 to 123 °C.
Compound `COc1cc2c3c(c1)c(=O)c(Cc1cccnc1)cn3-c1ccc(Br)cc1S2` has a melting point of 157 to 159 °C.
With `COc1ccc(-c2nc(C(N)=O)sc2-c2ccc(OC)cc2)cc1` the melting point was 160 to 162 °C.
In the case of `Cc1noc(C)c1C(=O)Nc1ccc(-n2nc(C(F)(F)F)cc2C(F)(F)F)c(Cl)c1`, the melting point is reported as 64 to 65 °C.
Compound `N#CCN1C(=O)COc2cc(F)c([N+](=O)[O-])cc21` has a melting point of 196 to 200 °C.
Work on `Cc1cc(C(=O)NCc2ccccc2)c(N)s1` yielded a melting point of 170 °C.
In the case of `Cn1c([N+](=O)[O-])cnc1C(C)(C)O`, the melting point is reported as 102 to 107 °C.
For `O=c1c(Cl)nsnc1Sc1ccccc1`, the melting point was 99.5 to 102 °C.
`Cc1[nH]c(C)c(-c2ccc(Oc3ccc(Cl)cc3)cc2)c(=O)c1Cl` showed a melting point of 340 to 343 °C.
With `Cc1nc(-n2ccc(O)cc2=O)sc1C(=O)NCc1ccccc1` the melting point was 240 to 243 °C.
`CCOC(=O)c1ccc(CCN2CCN(C(=O)CCc3cc(C(C)(C)C)c(O)c(C(C)(C)C)c3)CC2)cc1` gave a melting point of 105 to 107 °C.
Work on `FC(F)(F)c1cc(Cl)c2cc(Cl)cc(Cl)c2n1` yielded a melting point of 74 to 76 °C.
Work on `Cc1c(NC(=O)c2ccc(OC[C@@H]3CCCO3)cc2)ccc2cc(CNCCOC(C)C)cnc12` yielded a melting point of 111 to 113 °C.
Work on `O=C(O)CNc1ccc2ccccc2c1` yielded a melting point of 219 to 221 °C.
With `Cc1ccc(S(=O)(=O)N2[C@@H](c3ncon3)CC[C@H]2c2ccc(F)cc2)cc1` (racemic) the melting point was 165 °C.
Work on `Cc1nc(C#Cc2cncc(CO)c2)cs1` yielded a melting point of 98 to 99 °C.
For `O=C1Nc2ccc(Br)cc2C12OCCCO2`, the melting point was 166 to 168 °C.
`COC(=O)C(C)Oc1ccc(NC(=O)COCc2ccccc2)cc1` (centres undefined) gave a melting point of 67 to 70 °C.
Compound `Cn1cc(-c2cc(-c3cnc4[nH]ccc4c3)ccn2)n(-c2ccc(C(C)(C)C(N)=O)cc2)c1=O` has a melting point of 299 °C.
`FC(F)(F)c1ccc2c(C3CCN(CCCOc4cccc5[nH]ccc45)CC3)c[nH]c2c1` showed a melting point of 92 to 97 °C.
For `O=C1CCN(C(=O)OCc2ccc([N+](=O)[O-])cc2)CC1`, the melting point was 123 to 124 °C.
`Cc1cc(C)n(-c2nc(Nc3ccc(I)cc3)c3ccccc3n2)n1` gave a melting point of 226 to 229 °C.
For `CC(=O)OCCC1CCC2C3CCC4CCCCC4(C)C3CCC12C` (centres undefined), the melting point was 123 to 125 °C.
In the case of `CCCC(=O)c1cnc2c(OC)cccc2c1Cl`, the melting point is reported as 114 to 116 °C.
With `CC(C)n1nc(-c2sc(NC(=O)c3ccc(CN(C)CCN(C)C)cc3)nc2-c2ccccc2)ccc1=O` the melting point was 131 to 133 °C.
In the case of `CN(C)S(=O)(=O)c1ccc(N)cc1C(F)(F)F`, the melting point is reported as 140 to 142 °C.
